These results are taken from US7838552B2, “Compositions comprising nebivolol” (Forest Laboratories Holdings Limited, priority 2004, dated 2010).

The test relates to Black donor endothelial cells (HUVEC). The test is described as follows: NO release from HUVEC of Black donors, measured with a porphyrinic nanosensor. Type of test: cell-based, Human. The settings on record: for magnitude of the increase in NO release, Black versus White donor cells: chronic ACE inhibitor treatment followed by nebivolol 1 μM, FIG. 2 and FIG. 4. As for the experimental part: All measurements presented were recorded in vitro using a sensitive porphyrinic probe, as previously described. Malinski T, Taha Z., Nature. 1992; 358:676-678; Malinski T, Czuchajowski L., Methods in Nitric Oxide Research. 1996:319-339. NO release was measured directly from HUVEC. HUVEC cells from Black and White donors were grown in Ham's F12K medium with 2 mM L-glutamine adjusted to contain 1.5 g/L sodium bicarbonate and supplemented with 0.1 mg/ml heparin and 0.03-0.05 mg/ml endothelial cell growth supplement (ECGS) +10% fetal bovine serum. The HUVEC cells were kept in an atmosphere of elevated CO2 concentration (5%). Nebivolol was obtained from Mylan Laboratories (Morgantown, W.Va.).
All measurements of endothelial NO release were conducted in Hank's balance solution at 37° C. Cell wells were transferred to a Faraday cage and a porphyrinic sensor (diameter 0.5 mm) was positioned at a distance of 5±2 μm from the surface of the endothelial cells using an inverted microscope (Leica Microsystems, Wetzlar, Germany) and a computer-assisted micromanipulator. The sensor operated with a three-electrode system: nanosensor (working electrode), saturated calomel electrode (reference electrode) and platinum wire (counter electrode, 0.5 mm diameter). The three electrodes were connected to a potentiostat/galvanostat PAR273. The baseline was stabilized after about 20 seconds. The test compounds were injected with a nanoinjector onto the surface of the cells following solubilization in buffer. Cells were incubated with the test compounds for a 24-hour period. The compounds were then washed out of the system before being immediately reintroduced in order to evaluate the consequences of chronic treatment on NO release from the cells. For additive experiments, cells were incubated with ACE inhibitor for 24 hours, the inhibitor was washed out of the system, nebivolol was added and the NO release measured. The current proportional to the NO concentration was measured with the sensor, which operated in amperometric mode at a constant potential of 0.63V. Data were acquired with the use of an IBM computer with custom software and amperograms (current vs. time curves) were recorded with a Guniry FAS1 Femtostat (Warminster, Pa.). Maximum release of NO was produced using a calcium agonist (1 μM). By increasing cytoplasmic levels of calcium, the ion can bind to calmodulin. The Ca2+-calmodulin complex is a cofactor for endothelial NO synthase, along with FAD, FMN, Heme and BH4.
Nanosensors were prepared from carbon fibers. The size of the tip of carbon fiber was reduced from 6 μm to less than 1 μm by temperature controlled burning. The sensors were sensitized to NO by deposition of electrically conductive polymeric porphyrin and covered with a thin layer of Nafion. […]

Take `CCOC(=O)[C@H](CCc1ccccc1)N[C@@H](C)C(=O)N1CCC[C@H]1C(=O)O` [enalapril]: the “magnitude of the increase in NO release, Black versus White donor cells” value was “greater in endothelial cells from Blacks than Whites”. Also, the “enhancement of the ability of nebivolol to increase NO release” value (Black donor cells, chronic (24 h) enalapril 5 and 10 μM, then nebivolol 1 μM, FIG. 3) is recorded as “significantly enhanced”.
In the case of `C[C@H](N[C@@H](CCc1ccccc1)C(=O)O)C(=O)N1[C@H](C(=O)O)C[C@@H]2CCC[C@@H]21` [ramiprilat], the “magnitude of the increase in NO release, Black versus White donor cells” value is reported as “greater in endothelial cells from Black donors”. Also, the “effect on the ability of nebivolol to increase NO release” value (Black donor cells, chronic (24 h) ramiprilat 1, 5 and 10 μM, washed out, then nebivolol 1 μM, FIG. 1) is “modest but significant effects”.
